Source: ChEMBL document CHEMBL1201862, “PubChem BioAssay data set” (2004)
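Following 48 hours of exposure in 96-well plates, responses at five concentrations were used to interpolate endpoints linearly. GI50 marks 50% less growth.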 Activity calls are given as the source filed them. Rule as the data show it: active = GI50 up to about 1.1 µM and inactive = higher.

Experiments:
Assay in all cases: NCI-60 cell line screen, 48 h
[1] = test system: SF-539
[2] = test system: HOP-92
[3] = test system: SK-OV-3
[4] = test system: EKVX
[5] = test system: NCI-H522
[6] = test system: TK-10
[7] = test system: NCI-H226
[8] = test system: HCT-15
[9] = test system: A549
[10] = test system: RXF 393
[11] = test system: UACC-62
[12] = test system: OVCAR-5
[13] = test system: NCI-H23
[14] = test system: HT-29
[15] = test system: SW-620
[16] = test system: OVCAR-4
[17] = test system: OVCAR-3
[18] = test system: CAKI-1
[19] = test system: SF-295
[20] = test system: HCC 2998

SMILES | GI50 [1] | GI50 [2] | GI50 [3] | GI50 [4] | GI50 [5] | GI50 [6] | GI50 [7] | GI50 [8] [µM] | GI50 [9] | GI50 [10] | GI50 [11] | GI50 [12] | GI50 [13] | GI50 [14] | GI50 [15] | GI50 [16] | GI50 [17] | GI50 [18] | GI50 [19] | GI50 [20]
CCCCSCc1nc2nc(Cl)c(Cl)nc2[nH]1 | 50.2 µM (inactive) | 24.5 µM (inactive) | 18.7 µM (inactive) | 33.3 µM (inactive) | 17.8 µM (inactive) | 27.9 µM (inactive) | 33.7 µM (inactive) | 23.4 | 28.8 µM (inactive) | 19.4 µM (inactive) | 10.5 µM (inactive) | 30.9 µM (inactive) | 16.8 µM (inactive) | 30.8 µM (inactive) | 28.5 µM (inactive) | 29.5 µM (inactive) | 12.4 µM (inactive) | 23.7 µM (inactive) | 14.5 µM (inactive) | 
O=C1Nc2c(Cl)cccc2/C1=N/Nc1ccccc1[N+](=O)[O-] | 16.7 µM (inactive) |  | 18.8 µM (inactive) | 3.51 µM (inactive) | 4.45 µM (inactive) | 11.5 µM (inactive) | 36.1 µM (inactive) | 29.9 | 21.8 µM (inactive) | 31.9 µM (inactive) | 17.5 µM (inactive) | 50.7 µM (inactive) | 13.5 µM (inactive) | 12.5 µM (inactive) | 32.7 µM (inactive) | 8.81 µM (inactive) | 44.4 µM (inactive) | 11.7 µM (inactive) | 9.02 µM (inactive) | 32.7 µM (inactive)
CCN1CCC(O)(c2ccc([N+](=O)[O-])cc2)C(C(=O)c2ccc([N+](=O)[O-])cc2)C1 (centres undefined) | 14.3 µM (inactive) |  | > 100 µM (inactive) | 18.9 µM (inactive) | 3.33 µM (inactive) | 17.8 µM (inactive) | 26.3 µM (inactive) | 21.3 | 69 µM (inactive) | 14.4 µM (inactive) | 18.2 µM (inactive) | 52.6 µM (inactive) | 19.5 µM (inactive) | 32.1 µM (inactive) | 25.1 µM (inactive) | 25.9 µM (inactive) | 14.8 µM (inactive) | 22.3 µM (inactive) | > 100 µM (inactive) | 17.7 µM (inactive)
N/C(=N\N=C\c1cc2ccccc2s1)c1cnccn1 | > 100 µM (inactive) | > 100 µM (inactive) | > 100 µM (inactive) | > 100 µM (inactive) | > 100 µM (inactive) | 87.7 µM (inactive) | > 100 µM (inactive) | > 100 | > 100 µM (inactive) | > 100 µM (inactive) | > 100 µM (inactive) | > 100 µM (inactive) | > 100 µM (inactive) | > 100 µM (inactive) | > 100 µM (inactive) | > 100 µM (inactive) | > 100 µM (inactive) | > 100 µM (inactive) | 84.5 µM (inactive) | 
O=C(Nc1ccc(Cl)cc1Cl)c1c/c(=N\O)c2ccc(O)cc2o1 | > 100 µM (inactive) | > 100 µM (inactive) | > 100 µM (inactive) |  | > 100 µM (inactive) | > 100 µM (inactive) | > 100 µM (inactive) | > 100 | > 100 µM (inactive) | > 100 µM (inactive) | > 100 µM (inactive) | > 100 µM (inactive) | > 100 µM (inactive) | > 100 µM (inactive) | > 100 µM (inactive) | > 100 µM (inactive) | > 100 µM (inactive) | > 100 µM (inactive) | > 100 µM (inactive) | 
O=S1(=O)OCCOS(=O)(=O)C1Cl | > 100 µM (inactive) | > 100 µM (inactive) | > 100 µM (inactive) | > 100 µM (inactive) | > 100 µM (inactive) | > 100 µM (inactive) | > 100 µM (inactive) |  | > 100 µM (inactive) |  | 82.6 µM (inactive) |  | > 100 µM (inactive) | > 100 µM (inactive) | > 100 µM (inactive) | > 100 µM (inactive) | > 100 µM (inactive) | > 100 µM (inactive) | > 100 µM (inactive) | > 100 µM (inactive)
COc1ccc(/C(=N/O)C(c2ccc(OC)cc2)C2C(=O)Oc3ccccc32)cc1 (centres undefined) | > 100 µM (inactive) | 16.3 µM (inactive) | > 100 µM (inactive) | 53.1 µM (inactive) | 35.6 µM (inactive) | > 100 µM (inactive) | 37.2 µM (inactive) | 71.6 | 42 µM (inactive) |  | 82 µM (inactive) | 12.7 µM (inactive) | 40.3 µM (inactive) | > 100 µM (inactive) | > 100 µM (inactive) | 48.6 µM (inactive) |  | 92 µM (inactive) | 3.13 µM (inactive) | > 100 µM (inactive)
COc1cc2ccc1-c1cc(ccc1O)CC1c3cc4c(cc3CCN1C)Oc1c(OC)cc3c(c1O4)C(C2)N(C)CC3 (centres undefined) | 1.79 µM (inactive) | 13.4 µM (inactive) |  | 2.1 µM (inactive) | 1.75 µM (inactive) | 12.2 µM (inactive) | 2.22 µM (inactive) | 1.68 | 1.84 µM (inactive) | 1.67 µM (inactive) | 2 µM (inactive) | 3.4 µM (inactive) | 1.99 µM (inactive) | 1.73 µM (inactive) | 1.84 µM (inactive) | 1.96 µM (inactive) | 1.95 µM (inactive) | 2.52 µM (inactive) | 1.81 µM (inactive) | 1.63 µM (inactive)
N#CC(c1nc2ccccc2nc1Cl)S(=O)(=O)c1ccccc1 (centres undefined) | > 100 µM (inactive) | 27.4 µM (inactive) |  | > 100 µM (inactive) | 30.7 µM (inactive) | > 100 µM (inactive) | > 100 µM (inactive) | 54.1 | > 100 µM (inactive) |  | 35.8 µM (inactive) | > 100 µM (inactive) | 37.5 µM (inactive) |  | 69.3 µM (inactive) | 53.3 µM (inactive) | > 100 µM (inactive) | 51.3 µM (inactive) |  | 65.9 µM (inactive)
Cc1noc(/N=C2\C=C(O)C(=O)c3ccccc32)c1C | 1.04 µM (active) | 18.8 µM (inactive) | 8.3 µM (inactive) | 37.8 µM (inactive) | 0.274 µM (active) | > 100 µM (inactive) | 23.8 µM (inactive) | 11.6 | 5.31 µM (inactive) |  | 2.14 µM (inactive) | 9.27 µM (inactive) | 3.47 µM (inactive) | 17.6 µM (inactive) |  | 19.5 µM (inactive) | 4.31 µM (inactive) | 5 µM (inactive) | 11.1 µM (inactive) | 
CN(C)CC1(C)CC/C(=C\c2ccc(Cl)cc2)C1=O (centres undefined) | 46.5 µM (inactive) | 59 µM (inactive) |  |  | 17.7 µM (inactive) | 88.5 µM (inactive) | > 100 µM (inactive) | 34.4 | 66.8 µM (inactive) | 22.4 µM (inactive) | 28.5 µM (inactive) | > 100 µM (inactive) | 57.4 µM (inactive) | 44.2 µM (inactive) | 16.5 µM (inactive) | 35.2 µM (inactive) | 34.7 µM (inactive) | 22.7 µM (inactive) | 67.1 µM (inactive) | 40.5 µM (inactive)
BrC/C=C/C[P+](c1ccccc1)(c1ccccc1)c1ccccc1 | 1.52 µM (inactive) | 11.7 µM (inactive) | 86.5 µM (inactive) |  | 12.4 µM (inactive) | 11.6 µM (inactive) |  |  | 7.87 µM (inactive) |  | 9.04 µM (inactive) | 31 µM (inactive) | 32.3 µM (inactive) |  | 6.52 µM (inactive) | 41.1 µM (inactive) | 7.28 µM (inactive) |  | 13.1 µM (inactive) | 35.2 µM (inactive)
COc1cc2nc(-c3cccs3)[nH]c(=O)c2cc1OC | 38.7 µM (inactive) | > 100 µM (inactive) | > 100 µM (inactive) | > 100 µM (inactive) | > 100 µM (inactive) | > 100 µM (inactive) | > 100 µM (inactive) | > 100 | > 100 µM (inactive) | > 100 µM (inactive) | > 100 µM (inactive) | 28.6 µM (inactive) | > 100 µM (inactive) | > 100 µM (inactive) | > 100 µM (inactive) | > 100 µM (inactive) | > 100 µM (inactive) | > 100 µM (inactive) | 86.7 µM (inactive) | 
Nc1n[n+](-c2ccccc2)no1 | 51.4 µM (inactive) | 25.4 µM (inactive) | > 100 µM (inactive) | > 100 µM (inactive) | 41.7 µM (inactive) | > 100 µM (inactive) | > 100 µM (inactive) | 28.1 | 39.6 µM (inactive) |  | 5.37 µM (inactive) | 40.7 µM (inactive) | 65.3 µM (inactive) | 42.5 µM (inactive) | 45.8 µM (inactive) | > 100 µM (inactive) | 47.4 µM (inactive) | 24.7 µM (inactive) | 33.8 µM (inactive) | 17.4 µM (inactive)
CCOC(=O)[C@@]12CCC(C1=O)[C@](C)(O)C[C@@H]2c1ccccc1 | 32.7 µM (inactive) | 55.1 µM (inactive) | 29.1 µM (inactive) | 57.1 µM (inactive) | 19 µM (inactive) | > 100 µM (inactive) | > 100 µM (inactive) | 25.8 | 50.4 µM (inactive) | 29.3 µM (inactive) | 29.7 µM (inactive) | 80.9 µM (inactive) | 66.5 µM (inactive) | 29.2 µM (inactive) | > 100 µM (inactive) | > 100 µM (inactive) | 28.2 µM (inactive) | 39.2 µM (inactive) | 32.7 µM (inactive) | 
Cc1cccc(CC(Cc2c(C)cccc2C(=O)O)C(=O)O)c1 (centres undefined) | > 100 µM (inactive) |  | > 100 µM (inactive) | > 100 µM (inactive) | > 100 µM (inactive) | > 100 µM (inactive) | > 100 µM (inactive) | 31.3 | > 100 µM (inactive) | > 100 µM (inactive) | 0.0875 µM (active) | > 100 µM (inactive) | > 100 µM (inactive) | > 100 µM (inactive) | > 100 µM (inactive) | > 100 µM (inactive) | > 100 µM (inactive) | > 100 µM (inactive) | > 100 µM (inactive) | 67.6 µM (inactive)
